{"source": "patent US20250197864A1", "about": "“LNCRNA TRANSCRIPTS IN MELANOMAGENESIS” (The Regents of the University of California, priority 2021, published 2025)", "key": {"D04 cells": {"test_system": "D04 cells", "assay": "Flow cytometry apoptosis (Annexin V and propidium iodide)", "type": "cell-based, human", "conditions": "50 nM, 24 h, vs Control-ASO", "procedure": "To confirm activation of apoptosis and cell death in response to TRASH-ASO treatment (SEQ ID NO: 15) D04 cells were either treated with control-ASO or TRASH-ASO (50 nM) for 24 h. The cells were stained with Alexa 488 Annexin V and propidium iodide (PI) (Invitrogen™ Dead Cell Apoptosis Kits with Annexin V for Flow Cytometry Catalog number: V13241). […] (FIG. 5e)"}, "[1]": {"test_system": "kinases in D04, D04RM and MM415 melanoma cell extracts", "assay": "High Throughput Kinase Activity Mapping (HT-KAM)", "type": "cell-based, human", "conditions": "ASO 50 nM, one day, vs Control-ASO", "procedure": "We mapped and compared the phospho-catalytic profile of kinases of D04, MM415 and D04RM cells that were incubated with TRASH targeting ASOs (SEQ TD NO: 15), ASOs targeting the oncogenic lncRNA Malat1 and non-targeting control ASOs. Therefore, ye used the high-throughput system HTKAM to measure the enzymatic activity of kinases using biological peptide targets as phospho-sensors to reveal kinase dependencies in cell lines.\nKinases cover a wide range of apoptosis regulating functions in cancer. Given the findings that TRASH-ASO treatment (SEQ ID NO:15) strongly affects the transcriptional regulation of genes that are related to kinase signaling pathways, we aimed to perform functional profiling of kinase activity shifts triggered by TRASH-inhibition. To do so, we used a kinase activity screening platform39 (named High Throughput Kinase Activity Mapping—HT-KAM) that enables the simultaneous identification of kinase enzymes functional state in cancer cells across a broad range of kinase families (see Methods for details). We generated protein extracts of two versions of the D04 (D04—treatment naive; D04RM—trametinib resistant) and the MM415 melanoma cell-lines, treated with Control-ASOs or TRASH-ASOs. […]"}}, "data": [{"sequence": "GACTGGAGATAATTAA (gapmer, pattern not given here) [SEQ ID NO: 15, GapmeR ASO targeting AC004540.4 (TRASH), exon region of both isoforms; used for in vitro experiments]", "values": [{"measurement": "fractions of apoptotic and dead cells (Annexin V / PI)", "setting": "D04 cells", "result": "Increased fractions of apoptotic and dead cells"}, {"measurement": "activity of anti-apoptotic kinases (AKT1, CDK1, LYN, YES1, CHEK1, PKCA, STK11, PKCa, PIM1) by HT-KAM", "setting": "[1]; listed as SEQ TD NO: 15", "result": "significantly decreased activity levels"}, {"measurement": "activity of anti-apoptotic kinases (AKT1, CDK1, LYN, YES1, CHEK1, PKCA, STK11, PKCa, PIM1) by HT-KAM", "setting": "[1]; listed as TRASH-ASO", "result": "significantly less active"}]}]}
